This assay addresses cannabinoid receptor subtype 2 (CB2) (Homo sapiens, UniProt P34972). Description: [3H]CP-55940 radioligand competition binding, CHO-CB2 cell membranes. (In general: Loss of bound radioactivity is the signal in a displacement assay; it reports binding, not function.)

One may read the Ki as a measure of affinity in units of concentration, obtained from inhibition or displacement.

Sequence of cannabinoid receptor subtype 2 (CB2) (P34972 whole entry): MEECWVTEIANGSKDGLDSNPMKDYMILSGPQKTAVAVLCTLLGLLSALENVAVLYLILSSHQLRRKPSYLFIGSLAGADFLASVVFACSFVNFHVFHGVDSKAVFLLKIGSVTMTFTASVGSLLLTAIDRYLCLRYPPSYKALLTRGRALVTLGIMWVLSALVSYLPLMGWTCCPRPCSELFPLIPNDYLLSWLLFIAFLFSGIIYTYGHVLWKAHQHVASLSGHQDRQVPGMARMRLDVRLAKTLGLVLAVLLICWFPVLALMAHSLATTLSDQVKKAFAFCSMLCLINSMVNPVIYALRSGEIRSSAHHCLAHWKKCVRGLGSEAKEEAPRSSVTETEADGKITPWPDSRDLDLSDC

`COC(=O)C1(C)CCCC2(C)c3cc(O)c(C(C)C)cc3CCC12` (stereo not shown) [compound 49888, NSC49888]: the affinity, expressed as Ki, was 6.7 nM. As to `COc1ccc2c(c1)CCC1=C2CC2C(=O)C1(C)CCC2(C)OC(C)=O` (stereo not shown) [compound 76301, NSC76301], the “Experimental pKi” value was determined as 5.42 pKi.

In the case of `CC(=O)OC1CC2C3(C)CCC4C(C)(C)CCCC4(C)C3CC(O)C2(C)C2C1=COC2OC(C)=O` (stereo not shown) [compound 369049, NSC369049], the “Experimental pKi” value was found to be 5.51 pKi. Consider `COc1ccc2c(c1)c1c(C)c3cnccc3c(C)c1n2CCCN1C(=O)c2ccccc2C1=O` [compound 174122, NSC174122], for which the “Experimental pKi” value was 5.59 pKi.

For the origin of these results see publication PMC3462244 (2012).
